{"source": "patent US8653146B2", "about": "“Method for treating Th17 inflammatory disease through inhibition of vascular endothelial growth factor receptors and pharmaceutical composition therefor” (Postech Academy-Industry Foundation, priority 2009, dated 2014)", "format_in_all_cases": "in vivo, C57BL/6 mice", "key": {"[1]": {"test_system": "Th1- and Th17-mediated immune responses", "experiment": "Overall conclusion on lung inflammation and Th1/Th17 immune responses in asthma animal models", "protocol": "VEGFR inhibitors were assayed for inhibitory activity in asthma animal models suffering from Th17-mediated inflammation.\n(§1) To construct asthma animal models, C57BL/6 (female, 6 weeks old) mice were divided into groups, each consisting of five mice and sensitized with 75 μg of ovalbumn (OVA) as an allergen and 10 μg of an endotoxin (lipopolysaccharide, LPS) as an adjuvant via an intranasal route on Day 0, 1, 2 and 7. Some mice in experiment groups were intraperitoneally injected with SU5416 (purchased from Sigma) at a dose of 1 mg/kg or 10 mg/kg, or anti-Flk-1 (purchased from R&D systems) at a dose of 0.1, 1 or 10 μg 30 min before the intranasal administration of OVA and LPS. On days 14, 15, 21 and 22, OVA (50 μg) was intranasally administered to the animals after anesthesia.\n(§2) The mice were examined for pulmonary inflammation 6 hours (day 22) and 48 hours (day 24) after the last OVA administration. In this regard, the mice were anesthetized by intraperitoneal injection of a mixture of ketamin and xylazine and allowed to undergo thoracotomy to expose the trachea into which a catheter was then inserted, followed by ligation. The airway was washed by injecting 1 mL of sterile saline twice to obtain bronchoalveolar lavage (BAL) fluid. For the analysis of T lymphocytes in pulmonary tissues, cells were extracted from the local lymph nodes of the lung excised."}, "[2]": {"test_system": "gamma interferon, IL-17 and IL-6 in BAL fluid", "experiment": "Cytokine levels (gamma interferon, IL-17, IL-6) in BAL fluid of OVA/LPS asthma animal models by ELISA", "protocol": "as §1\nas §2, with “For the analysis of T lymphocytes in pulmonary tissues, cells were extracted from the local lymph nodes of the lung excised.” left out\n(§3) The BAL fluid was centrifuged at 4° C. at 3000 rpm for 10 min and the cell pellet thus formed was suspended in PBS (phosphate buffered saline). […] In a 1000× magnified sight under an optical microscope, 300 or more inflammatory cells were observed and classified into macrophages, lymphocytes, neutrophils, and eosinophils which were then counted. In addition, levels of gamma interferon, responsible for Th1 inflammatory response, and IL-17 and IL-6, both responsible for Th17 inflammatory response, in the BAL fluid were quantified by ELISA. […]\nMice in the experimental groups were intraperitoneally injected with 0.1, 1.0 and 10 μg of a monoclonal antibody against VEGFR-2 (anti-Flk-1, R&D Systems) while mice in the control group were intraperitoneally injected with PBS. […] BAL fluid obtained 24 hours after the sensitization (day 1) was quantitatively analyzed for inflammatory cell and IL-6 levels and the results are shown in FIG. 13."}, "[3]": {"test_system": "immune cells isolated from local lymph nodes", "experiment": "Cytokine secretion by local lymph node immune cells in response to allergen (OVA) stimulus, ELISA", "conditions": "SU5416 upon sensitization; six hours after three OVA challenges (day 21); FIGS. 10b and 10c", "protocol": "as §1, with “On days 14, 15, 21 and 22, OVA (50 μg) was intranasally administered to the animals after anesthesia.” left out\nas §2, with “In” for “The mice were examined for pulmonary inflammation 6 hours (day 22) and 48 hours (day 24) after the last OVA administration. In”\nThe cells obtained from the lymph nodes were incubated for 72 hours in RPMI (Gibco) supplemented with 100 μg/ml OVA, 10% FBS, and an antibiotic before respective cytokines responsible for Th1-, Th17- and Th2-mediated inflammatory responses were quantified using ELISA. […]"}, "[4]": {"test_system": "inflammatory cells in BAL fluid", "experiment": "Inflammatory cell count in BAL fluid of OVA/LPS-sensitized asthma animal models", "conditions": "SU5416 1 mg/kg or 10 mg/kg i.p. 30 min before OVA/LPS sensitization (days 0, 1, 2, 7); 48 hours after last OVA injection (day 24); FIG. 9", "protocol": "as §1\nThe mice were examined for pulmonary inflammation 6 hours (day 22) and 48 hours (day 24) after the last OVA administration. […]\nas §3"}, "[5]": {"conditions": "SU5416 upon sensitization, six hours after three rounds of OVA challenge (day 21), FIG. 10a"}}, "data": [{"smiles": "Cc1cc(C)c(/C=C2\\C(=O)Nc3ccccc32)[nH]1", "note": "[SU5416, Semaxanib]", "values": [{"measurement": "inflammation in the lung", "setting": "[1]; summary of Examples 1 and 2", "value": "excellently suppress inflammation in the lung"}, {"measurement": "Th1- and Th17-mediated immune responses", "setting": "[1]; summary of Examples 1 and 2, immunological perspective", "value": "suppressive of Th1- and Th17-mediated immune responses"}, {"measurement": "IL-6 level in BAL fluid", "setting": "[2]; SU5416 10 mg/kg, 6 hours after three rounds of sensitization with OVA and LPS, vs OVA/LPS_sham, FIG. 11", "value": "lower amounts of IL-6 than did the control"}, {"measurement": "level of IL-17 in BAL fluid", "setting": "[2]; [5]", "value": "significantly decrease"}, {"measurement": "level of gamma interferon in BAL fluid", "setting": "[2]; [5]", "value": "significantly decrease"}, {"measurement": "IL-17 secreted by local lymph node immune cells in response to allergen stimulus", "setting": "[3]", "value": "significantly decreased level"}, {"measurement": "gamma interferon secreted by local lymph node immune cells in response to allergen stimulus", "setting": "[3]", "value": "significantly decreased level"}, {"measurement": "inflammatory cell count in BAL fluid", "setting": "[4]", "value": "reduced in a dose-dependent manner"}]}]}
